Experimental data published in ChEMBL document CHEMBL4229329, “Design of Small-Molecule Active-Site Inhibitors of the S1A Family Proteases as Procoagulant and Anticoagulant Drugs” (J Med Chem, 2018).
pKi: −log10 of the molar value. Each block holds one compound with its values, some of them ahead of it.

How the values were obtained:
Homo sapiens [1] = organism: Homo sapiens; assay: Selectivity ratio of Ki for human PKK to Ki for human factor 11a
[2] = Apparent permeability across apical to basolateral side in human Caco2 cells at 10 umol/l measured at 45 to 120 mins by LC-MS/MS analysis; type: ADME, cell-based; conditions: Caco-2
[3] = Oral bioavailability in human at 57 to 200 mg; type: ADME, organism-based; conditions: in vivo
[4] = Apparent permeability across human Caco2 cells measured every 30 mins for 2 hrs; type: ADME, cell-based; conditions: Caco-2
[5] = Oral bioavailability in human at 10 mg; type: ADME, organism-based; conditions: in vivo
[6] = Efflux ratio of apparent permeability across basolateral to apical over apical to basolateral side in human Caco2 cells; type: ADME, cell-based; conditions: Caco-2
Homo sapiens [7] = organism: Homo sapiens; assay: Selectivity ratio of Ki for recombinant human factor 9a to Ki for human factor 10a
[8] = Apparent permeability across apical to basolateral side in human Caco2 cells at 750 uM measured over 90 mins by HPLC-MS analysis; type: ADME, cell-based; conditions: Caco-2
Coagulation factor X = Coagulation factor X (Homo sapiens, UniProt P00742); assay: Competitive inhibition of human factor 10a using pefachrome F10a as substrate by UV-visible spectrophotometer
Coagulation factor XI = Coagulation factor XI (Homo sapiens, UniProt P03951); assay: Competitive inhibition of human factor 11a using pefachrome PCa as substrate by UV-visible spectrophotometer
Plasma kallikrein = Plasma kallikrein (Homo sapiens, UniProt P03952); assay: Competitive inhibition of human plasma kallikrein using S2302 as substrate by UV-visible spectrophotometer
Plasminogen = Plasminogen (Homo sapiens, UniProt P00747); assay: Competitive inhibition of human plasmin using chromozyme PL as substrate by UV-visible spectrophotometer

Structure (SMILES): N=C(N)c1ccc(CNC(=O)[C@@H]2CCN2C(=O)[C@H](NCC(=O)O)C2CCCCC2)cc1
bioavailability [3]: 3 to 7%
Papp at 2 h [4]: 0.03 ×10⁻⁶ cm/s

Structure (SMILES): O=C(NC[C@H]1CN(c2ccc(N3CCOCC3=O)cc2)C(=O)O1)c1ccc(Cl)s1 [RIVAROXABAN]
bioavailability [5]: > 80%

Structure (SMILES): CCOC(=O)CN[C@@H](C(=O)N1CC[C@H]1C(=O)NCc1ccc(/C(N)=N\O)cc1)C1CCCCC1 [XIMELAGATRAN]
Papp A→B at 1.5 h, 750 µM [8]: 2.4 ×10⁻⁶ cm/s

More lines, now with the values ahead:

Ratio Ki (Homo sapiens [1]): 10
Papp A→B at 10 µM [2]: 0.28 ×10⁻⁶ cm/s
Structure (SMILES): O=C(N[C@@H](Cc1ccccc1)C(=O)NCc1cc(=O)[nH]c2ccc(Cl)cc12)c1ccc2[nH]c(=O)cc(O)c2c1

efflux ratio [6]: 13.8
Structure (SMILES): CCCCCCOC(=O)NC(=N)c1ccc(NCc2nc3cc(C(=O)N(CCC(=O)OCC)c4ccccn4)ccc3n2C)cc1 [DABIGATRAN ETEXILATE]

Ratio Ki (Homo sapiens [7]): 130
Structure (SMILES): N=C(N)c1cccc(-n2nc(C(F)(F)F)cc2C(=O)Nc2ccc(-n3cnc4ccccc43)cc2F)c1

pKi (Coagulation factor X): 7.35
pKi (Coagulation factor XI): 7.74
pKi (Plasma kallikrein): 10.70
pKi (Plasminogen): 8.66
Structure (SMILES): N=C(N)c1ccc(CC(=O)[C@H](Cc2cccc(CN)c2)NC(=O)[C@@H](CCCc2ccccc2)NS(=O)(=O)Cc2cccc(C(=O)O)c2)cc1
